Legend:
Assay in all cases: Kinobeads elution with test compound, mouse brain lysate, MS
Type in all cases: binding
Details in all cases: kinase released from kinobeads by specific elution
AAK1 = AAK1 (Mus musculus, UniProt Q3UHJ0)
How it was run: (§1)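 Proteins captured from mouse brain lysate onto kinobeads are displaced with unmodified compound at 1.0 mM (30 min, 4° C), with 2% DMSO or DMF buffer as the control. Eluted proteins are identified by mass spectrometry after gel separation.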

GAK = molecular target: T1, GAK (Mus musculus, UniProt Q99KY4)
T1 construct: from tissue; host or cells: mouse brain
T1 sequence (Q99KY4 1-1305): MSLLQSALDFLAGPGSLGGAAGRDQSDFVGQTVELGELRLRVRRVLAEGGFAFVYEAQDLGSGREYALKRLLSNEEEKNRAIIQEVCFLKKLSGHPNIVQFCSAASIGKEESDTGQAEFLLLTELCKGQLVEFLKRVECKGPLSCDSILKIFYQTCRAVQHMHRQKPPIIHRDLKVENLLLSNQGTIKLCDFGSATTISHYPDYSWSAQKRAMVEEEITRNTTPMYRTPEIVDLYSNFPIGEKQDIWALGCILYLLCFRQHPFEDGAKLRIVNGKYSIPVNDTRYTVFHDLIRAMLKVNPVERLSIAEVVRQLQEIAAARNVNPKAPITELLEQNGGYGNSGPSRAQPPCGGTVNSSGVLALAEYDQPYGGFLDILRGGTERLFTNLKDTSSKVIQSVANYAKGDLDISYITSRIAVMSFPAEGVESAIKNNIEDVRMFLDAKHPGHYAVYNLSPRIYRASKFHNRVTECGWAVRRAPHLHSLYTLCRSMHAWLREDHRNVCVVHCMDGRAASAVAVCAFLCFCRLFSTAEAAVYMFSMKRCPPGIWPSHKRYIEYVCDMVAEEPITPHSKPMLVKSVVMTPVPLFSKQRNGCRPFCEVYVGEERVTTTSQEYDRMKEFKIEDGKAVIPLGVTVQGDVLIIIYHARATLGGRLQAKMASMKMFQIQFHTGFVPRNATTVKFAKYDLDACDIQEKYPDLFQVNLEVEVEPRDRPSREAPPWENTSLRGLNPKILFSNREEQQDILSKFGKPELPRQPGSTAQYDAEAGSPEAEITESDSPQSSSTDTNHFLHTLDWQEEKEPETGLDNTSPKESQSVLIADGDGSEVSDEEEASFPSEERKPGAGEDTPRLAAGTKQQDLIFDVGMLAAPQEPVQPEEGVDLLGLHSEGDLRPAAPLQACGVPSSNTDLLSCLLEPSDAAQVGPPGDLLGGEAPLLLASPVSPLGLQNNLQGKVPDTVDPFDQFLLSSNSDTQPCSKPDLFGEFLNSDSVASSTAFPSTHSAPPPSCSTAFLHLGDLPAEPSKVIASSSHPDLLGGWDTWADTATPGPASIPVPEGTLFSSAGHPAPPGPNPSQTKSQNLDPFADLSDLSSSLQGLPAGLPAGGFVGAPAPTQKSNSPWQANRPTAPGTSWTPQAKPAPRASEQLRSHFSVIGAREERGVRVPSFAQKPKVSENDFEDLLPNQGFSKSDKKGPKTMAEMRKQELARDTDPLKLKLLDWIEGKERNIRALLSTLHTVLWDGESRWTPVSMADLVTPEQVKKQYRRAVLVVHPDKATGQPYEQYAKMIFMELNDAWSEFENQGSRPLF
How it was run: as §1

JNK1 = molecular target: T2, JNK1 (Mus musculus, UniProt Q91Y86)
T2 construct: from tissue; host or cells: mouse brain
How it was run: as §1

JNK3 = molecular target: T3, JNK3 (Mus musculus, UniProt Q61831)
T3 construct: from tissue; host or cells: mouse brain
How it was run: as §1

Chain of AAK1 (Q3UHJ0 whole entry): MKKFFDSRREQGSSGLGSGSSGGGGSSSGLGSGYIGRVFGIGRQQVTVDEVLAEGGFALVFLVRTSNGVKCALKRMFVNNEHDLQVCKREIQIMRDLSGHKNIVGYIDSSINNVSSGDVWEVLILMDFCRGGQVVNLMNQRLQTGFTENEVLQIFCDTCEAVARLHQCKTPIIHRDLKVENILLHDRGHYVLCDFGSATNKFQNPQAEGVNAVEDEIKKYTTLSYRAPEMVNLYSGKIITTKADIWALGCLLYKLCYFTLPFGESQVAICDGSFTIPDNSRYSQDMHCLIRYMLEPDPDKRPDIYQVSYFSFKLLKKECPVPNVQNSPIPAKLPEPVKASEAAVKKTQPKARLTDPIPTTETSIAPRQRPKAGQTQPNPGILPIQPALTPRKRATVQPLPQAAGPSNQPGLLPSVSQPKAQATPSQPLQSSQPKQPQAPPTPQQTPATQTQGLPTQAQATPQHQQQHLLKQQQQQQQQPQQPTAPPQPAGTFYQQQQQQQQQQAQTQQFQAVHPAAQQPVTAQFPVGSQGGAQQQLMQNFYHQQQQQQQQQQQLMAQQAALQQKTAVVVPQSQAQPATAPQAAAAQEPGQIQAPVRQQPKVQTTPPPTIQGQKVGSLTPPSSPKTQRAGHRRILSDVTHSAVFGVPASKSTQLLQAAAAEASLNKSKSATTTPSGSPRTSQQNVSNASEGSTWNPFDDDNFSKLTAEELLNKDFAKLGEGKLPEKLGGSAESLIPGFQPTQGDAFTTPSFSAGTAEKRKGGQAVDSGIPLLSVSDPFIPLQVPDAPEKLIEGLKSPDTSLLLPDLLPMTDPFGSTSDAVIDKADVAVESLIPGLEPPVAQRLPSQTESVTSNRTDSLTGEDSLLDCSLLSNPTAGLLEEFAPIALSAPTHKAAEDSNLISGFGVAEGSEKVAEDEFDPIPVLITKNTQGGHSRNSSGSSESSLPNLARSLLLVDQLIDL
T2 sequence (Q91Y86 whole entry): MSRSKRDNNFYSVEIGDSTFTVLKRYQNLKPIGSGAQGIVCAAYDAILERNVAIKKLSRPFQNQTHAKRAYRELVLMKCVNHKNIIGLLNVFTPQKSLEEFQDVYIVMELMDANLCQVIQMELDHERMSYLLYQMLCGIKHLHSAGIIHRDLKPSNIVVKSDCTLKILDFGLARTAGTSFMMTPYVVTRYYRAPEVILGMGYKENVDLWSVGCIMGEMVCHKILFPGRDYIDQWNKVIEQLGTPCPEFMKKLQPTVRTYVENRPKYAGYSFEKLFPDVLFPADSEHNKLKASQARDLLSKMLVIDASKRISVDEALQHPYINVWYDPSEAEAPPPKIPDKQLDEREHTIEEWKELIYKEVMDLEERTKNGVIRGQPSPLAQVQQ
T3 sequence (Q61831 whole entry): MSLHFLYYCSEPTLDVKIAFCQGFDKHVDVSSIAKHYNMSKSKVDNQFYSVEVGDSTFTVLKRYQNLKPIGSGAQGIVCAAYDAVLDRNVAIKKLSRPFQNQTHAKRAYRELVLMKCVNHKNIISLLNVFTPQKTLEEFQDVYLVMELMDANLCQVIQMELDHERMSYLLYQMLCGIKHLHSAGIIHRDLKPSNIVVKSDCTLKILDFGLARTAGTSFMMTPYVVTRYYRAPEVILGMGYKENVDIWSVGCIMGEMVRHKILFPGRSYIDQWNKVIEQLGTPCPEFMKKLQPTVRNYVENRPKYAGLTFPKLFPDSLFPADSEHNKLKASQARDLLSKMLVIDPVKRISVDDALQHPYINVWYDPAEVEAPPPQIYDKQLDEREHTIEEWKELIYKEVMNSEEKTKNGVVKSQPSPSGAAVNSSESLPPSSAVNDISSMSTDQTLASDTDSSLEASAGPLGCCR

SMILES | mass spectrometry score, AAK1 (AAK1) | number of identified peptides, AAK1 (AAK1) | mass spectrometry score, GAK (GAK) | number of identified peptides, GAK (GAK) | mass spectrometry score, JNK1 (JNK1) | number of identified peptides, JNK1 (JNK1) | mass spectrometry score, JNK3 (JNK3) | number of identified peptides, JNK3 (JNK3)
Cn1c(=O)c(-c2c(Cl)cccc2Cl)cc2cnc(Nc3ccc(CN)cc3)cc21 [CZC7324] | 582 | 35 | 278 | 7 | 448 | 17 | 782 | 49
NCc1ccc(Nc2ncc(F)c(Nc3ccccc3)n2)cc1 [CZC00008004] | 718 | 35 | 733 | 16 | 590 | 48 | 642 | 23
CNC1CC2OC(C)(C1OC)n1c3ccccc3c3c4c(c5c6ccccc6n2c5c31)C(=O)NC4 (stereo not drawn) [CZC9280] | 777 | 44 |  |  | 457 | 16 | 363 | 10
CC(C)[C@H](CO)Nc1nc(Nc2ccc(C(=O)O)c(Cl)c2)c2ncn(C(C)C)c2n1 [Purvalanol B, reference compound] | 1036 | 51 |  |  | 311 | 10 | 284 | 7
CCCCCCCCCCCCOS(=O)(=O)[O-].[Na+] [SDS] | 240 | 32 | 166 | 8 | 389 | 47 | 447 | 27

— patent US20090238808A1, “Process for the identification of novel enzyme interacting compounds” (priority 2005, published 2009)
